Measured values published in US20250041189A1, “STEM CELL PROLIFERATION PROMOTER” (SHISEIDO COMPANY, LTD., priority 2021, published 2025).

Experiments:
epidermal stem cells [1] = assay: Culturing of fresh human skin with agents, fluorescent immunostaining for Ki-67 and MCSP; type: cell-based; conditions: fresh human abdominal skin, final concentration 0.01%
Description: Fresh skin samples taken from the abdominal regions of participants (aged 20 to 30) with informed consent were purchased from KAC Co., Ltd. The samples were cultured in medium comprising an equal mixture of 10% FBS-DMEM (Thermo Fisher Scientific K.K., 11885084) and Humedia-KG2 (KURABO Industries Ltd., KK-2150S) with addition of 1-(2-hydroxyethyl)-2-imidazolidinone (“S173”, final concentration: 0.01%), which has an effect of inhibiting both MMP-9 and heparanase, […]”, final concentration: 0.01%), or a combination of 1-(2-hydroxyethyl)-2-imidazolidinone and […]”, final concentration: 0.01%). As a control, culturing was carried out in medium containing an equal amount of DMSO solvent lacking these agents. Medium was exchanged daily, and skin tissue slices were collected on the 2nd day (Day2). Following the AMeX method, fresh human skin was dehydrated and fixed using cold acetone and exchanged with acetone, methyl benzoate and xylene in that order, and then embedded in paraffin. Slices with thicknesses of 3 μm were prepared for tissue staining. Paraffin slices cut to 3 μm thicknesses were deparaffinized with xylene and hydrated using EtOH. Antibodies for Ki-67 (SP6) (Thermo Fisher Scientific K.K., RM-9106-S, rabbit […] monoclonal antibody) and antibodies for MCSP (melanoma-associated chondroitin sulphate proteoglycan) (Millipore, MAB2029, 9.2.27, mouse monoclonal antibody) were used for fluorescent immunostaining.

epidermal stem cells [2] = conditions: disclosed in NPL 1 (Iriyama et al., Scientific Reports 2020); cited from earlier work
[3] = Day2, compared to control without addition of agent (Day2 control)

Structure (SMILES): O=C1NCCN1CCO [S173, 1-(2-hydroxyethyl)-2-imidazolidinone]
- number of Ki67-positive cells (cell proliferation marker) (epidermal stem cells [1]; [3]): increased
- number of MCSP-positive cells (epidermal basal stem cell marker) (epidermal stem cells [1]; [3]): increased
- number of Ki67+MCSP-positive cells (epidermal stem cells [1]; Day2, compared to the control): increased
- number of stem cells (MCSP-positive) relative to Day0 (epidermal stem cells [1]; after culturing for 2 days, compared to Day0 level): maintained at the level of Day0
- effect on epidermal stem cell counts (epidermal stem cells [2]): maintaining epidermal stem cell counts
